Columns and labels:
[1] = system: estrogenic effect; settings: cited from earlier work
[2] = system: mammalian animals, in particular pigs; settings: cited from earlier work
[3] = relatively low acute toxicity; cited from earlier work
[4] = system: cattle; settings: cited from earlier work
[5] = system: pigs; settings: cited from earlier work
[6] = system: estrogen receptor; settings: cited from earlier work
[7] = cited from earlier work
[8] = system: polypeptide (hydrolase / zonase) with sequence ID no. 1, C-terminal 6×His tag; assay: Enzyme kinetics of ZEN hydrolysis to HZEN, photometric at 315 nm; assay type: biochemical; settings: ZEN substrate, 50 mM Tris-HCl pH 8.2, 32° C.
Procedure: The soluble cell lysate in the case of E. coli and/or the culture supernatant in the case of P. pastoris was/were used for determination of the catalytic properties of the polypeptides. To determine the KM value, vmax, kcat and the specific activity, the polypeptides were selectively enriched chromatographically by standard methods over nickel-Sepharose columns. The determination of the protein concentration was performed by means of standard methods, either being calculated by the BCA method (Pierce BCA Protein Assay KitProd #23225) or preferably photometrically with the specific extinction coefficients for the respective proteins that are available online with the ProtParam program at http://web.expasy.org/protparam (Gasteiger E. et al.; Protein Identification and Analysis Tools on the ExPASy Server, in John M. Walker (ed): The Proteomics Protocols Handbook, Humana Press, 2005, pp. 571-607).
The preparation, enrichment and purification of the polypeptides and/or variants thereof were performed as described in example 1. Degradation of ZEN to HZEN was measured on the basis of the reduction in absorption at the wavelength of 315 nm. […] The extinction coefficients have a strong dependence on pH and therefore the activity must always be measured precisely at the same pH and preferably also in the same matrix. The measurements were performed in a 50 mM Tris-HCl pH=8.2 buffer solution in quartz cuvettes in a wavelength range of 200 to 2500 nm in a UV-VIS photometer (Hitachi U-2001) at 32° C.
A 2.08 mM ZEN solution (40 vol % ACN+60 vol % H2O) was used as the ZEN substrate stock solution. To prepare this solution, ZEN in crystalline form (Biopure Standard from Romer Labs, article no. 001109, purity at least 98%) was weighed and dissolved accordingly. The ZEN substrate dilutions (0.79 μM, 1.57 μM, 2.36 μM, 3.14 μM, 4.71 μM, 6.28 μM, 7.85 μM, 9.42 μM, 10.99 μM, 12.56 μM, 14.13 μM, 15.71 μM, 17.28 μM and 18.85 μM) were prepared with 50 mM Tris-HCl pH=8.2. The polypeptide solutions were diluted to a final concentration of approximately 70 ng/mL using 50 mM Tris-HCl buffer pH=8.2. The ZEN substrate dilutions were preheated to 32° C. in a water bath.
100 μL portions of the respective ZEN substrate dilution were mixed with 0.2 μL polypeptide solution, and the absorption was measured for 5 minutes, whereupon each combination of polypeptide solution and ZEN substrate dilution was measured at least twice.
Taking into account the extinction coefficients of ZEN and HZEN, the reaction rate was calculated for each substance concentration on the basis of the slope in the absorption over time.
The designations “KM value” or “Michaelis-Menten constant” relate to a parameter for describing the enzymatic affinity of the units μM or mM, which are calculated with the help of the linear Hanes plots according to H. Bisswang (2002, Enzyme Kinetics, ISBN 3-527-30343-X, page 19), wherein the function “enzyme kinetics, single substrate” in the SigmaPlot 12.0 program is preferably used for this purpose. The designations “catalytic constant of the enzyme reaction” or “kcat value” relate to a parameter for describing the conversion rate of a polypeptide and/or enzyme, which is given in s^−1 and is preferably calculated with the help of the “enzyme kinetic, single substrate” function of the SigmaPlot 12.0 program. The “maximum enzyme rate” or “vmax value” is given in units of μM/s or mM/s and is determined with the help of the linear Hanes plot by analogy with the KM value, wherein the function “enzyme kinetic, single substrate” of the SigmaPlot 12.0 program is preferably used for this.
The raw data for determination of the enzyme parameters KM, vmax, kcat and the specific activity are given below for the polypeptide having the sequence ID no. 1.

C[C@H]1CCCC(=O)CCCCCc2cc(O)cc(O)c2C(=O)O1 [ZAN, (11S)-15,17-dihydroxy-11-methyl-12-oxabicyclo-[12.4.0]octadeca-1(18),14,16-triene-7,13-dione]
estrogenic effect compared with ZEN [1]: much stronger estrogenic effect than ZEN

C[C@H]1CCCC(=O)CCC/C=C/c2cc(O)cc(O)c2C(=O)O1 [ZEN, (2E,11S)-15,17-dihydroxy-11-methyl-12-oxabicyclo[12.4.0]octadeca-1(18),2,14,16-tetraene-7,13-dione]
ZEN concentration in feed resulting in developmental disorders [2]: more than 0.5 ppm
oral LD50 [3]: up to 20,000 mg/kg body weight
ZEN concentration blamed for spontaneous abortions [4]: 12 ppm
ZEN concentration that can result in hyperestrogenicity [5]: more than 1.5 ppm
binding to the estrogen receptor [6]: binds to the estrogen receptor
absorption through the mucous membranes ([7]; in particular gastric mucosa and oral mucosa): absorbed rapidly
time after oral administration at which ZEN can be detected in blood ([7]; oral administration): 30 min
Km ([8]; Average): 204 nM
Vmax ([8]; Average): 0.009343 µM/s
kcat ([8]; Average): 5.12 s⁻¹
Km ([8]; Measurement 1): 217 nM
Vmax ([8]; Measurement 1): 0.00993 µM/s
kcat ([8]; Measurement 1): 5.44 s⁻¹
Km ([8]; Measurement 2): 190 nM
Vmax ([8]; Measurement 2): 0.008756 µM/s
kcat ([8]; Measurement 2): 4.79 s⁻¹

C[C@H]1CCC[C@H](O)CCCCCc2cc(O)cc(O)c2C(=O)O1 [α-ZAL, (7R,11S)-7,15,17-trihydroxy-11-methyl-12-oxabicyclo[12.4.0]octa-deca-1(18),14,16-trien-13-one]
estrogenic effect compared with ZEN [1]: much stronger estrogenic effect than ZEN

C[C@H]1CCC[C@H](O)CCC/C=C/c2cc(O)cc(O)c2C(=O)O1 [α-ZEL, (2E,7R,11S)-7,15,17-trihydroxy-11-methyl-12-oxabicyclo[12.4.0]-octadeca-1(18),2,14,16-tetraen-13-one]
estrogenic effect compared with ZEN [1]: much stronger estrogenic effect than ZEN

Reference: patent US11998028B2, “Polypeptide for hydrolytic cleavage of zearalenone and/or zearalenone derivatives, isolated polynucleotide thereof as well as a polypeptide containing an additive, use of same as well as a process” (priority 2013, dated 2024)
